Experimental data from publication PMC12834051, “Improved synthesis and physicochemical characterization of the selective serotonin 2A receptor agonist 25CN-NBOH” (Beilstein Journal of Organic Chemistry, 2026).
≈ marks a conversion by molar mass, not a printed value. Where “and” joins values, the source holds several entries; their conditions need not be identical. Equal values may be shown once. Entries after “also recorded” stand apart in the source; their conditions may differ. Where a name gives a salt, the structure may show the parent alone. Read-outs that look alike come from different tables or passages of the source.

How the values were obtained:
[1] = Thermodynamic solubility in ultrapure water; assay type: physicochemical
Method: The solubility of 1·HCl in water was determined at 25 ± 0.5 °C by adding 30 mg to ultrapure water (3 mL) in screw-capped glass vials, giving a suspension where a solid precipitate could be observed at all timepoints. The samples were ultrasonicated for 3 min before being rotated in a temperature-controlled Incubator Hood TH 30 (Edmund Bühler, Bodelshausen, Germany). Sample aliquots of 600 µL were withdrawn after 30, 48, and 74 h and transferred to Eppendorf tubes. The samples were centrifuged at 19,000g for 15 min using a MiniSpin Plus (Eppendorf, Hamburg, Germany) and the supernatant filtered through a 0.45 µm PVDF filter (Ø = 4 mm, Phenomenex) with the first 400 µL being discarded. Samples were diluted with ultrapure water before measurement by a UV spectrophotometry at 241 nm using 10 mm micro quartz cuvettes (Hellma GmbH & Co. KG, Müllheim, Germany) and a Cary 60 UV–vis spectrophotometer (Agilent Technologies). Cary WinUV Simple Reads Application (Version 5.0.0, Agilent Technologies) was used for instrument control and data collection. The experiment was performed in triplicate.

[2] = Stability in solution (HPLC peak areas); assay type: physicochemical
Method: The stability of 1 was determined in 67 mM sodium phosphate buffer (pH 7.40, I = 0.18 M) and water at 25 ± 0.5 °C. The solutions comprising 0.2 mg/mL of 1·HCl were kept in a temperature-controlled incubator, and samples were measured by HPLC immediately after sample preparation as well as after one and four weeks for the experiments in phosphate buffer and after four weeks for experiments in ultrapure water. The stability of 1 was assessed based on peak areas. The experiment was performed in triplicate.
(§1) Samples from distribution coefficient and stability experiments were analyzed using an Agilent 1260 Infinity system (Agilent Technologies, Santa Clara, CA, USA) equipped with a column oven (Mikrolab Aarhus, Højbjerg, Denmark) and an Agilent 1100 series system (Agilent Technologies), respectively. Reversed-phase chromatography was performed using a Gemini C18 column (150 × 4.60 mm, 5 µm) with a Gemini C18 precolumn (4 × 3.00 mm, Phenomenex, Torrance, CA, USA). Detection was performed at 241 nm, the column temperature was 30 °C, the injection volume was 10 µL, and the flow rate was 1 mL/min. The mobile phase consisted of acetonitrile and 0.1% phosphoric acid in the ratios 35:65 and 25:75, v/v for the distribution coefficient and stability experiments, respectively. The ChemStation software (Version B.04.03, Agilent Technologies) was used for instrument control and data collection.

[3] = Octanol/buffer distribution coefficient (logD); assay type: physicochemical; conditions: 25 °C
Method: The pH-dependent octanol/buffer distribution coefficients of 1 were determined at 25 ± 0.5 °C using the following buffers: 50 mM sodium citrate (pH 5.00, I = 0.15 M), 67 mM sodium phosphate (pH 7.40, I = 0.18 M), and 50 mM sodium carbonate (pH 9.50, I = 0.15 M). The ionic strength of the buffers was adjusted by adding a calculated amount of potassium chloride. The octanol phases were saturated with the appropriate buffer solution, and vice versa, before the start of the experiment. Solutions of 2, 0.5, and 0.1 mg/mL of the drug in the buffer solutions at pH 5.00, 7.40, and 9.50, respectively, were prepared. The organic phase was hereafter added to the buffer solution in a ratio of 1:9 at pH 5.00 and 7.40 and 1:19 at pH 9.50. The samples were rotated for 24 h in a temperature-controlled incubator at 25 °C. The concentration of 1 in the buffer solution before and after partitioning, ci and cw, respectively, was determined by HPLC, from which distribution coefficients, D, were calculated according to
where Vw and Vo are the volume of the buffer solution and organic phase, respectively. Each experiment was conducted in triplicate.
as §1

[4] = in vivo, rodents; maximal brain exposure rapidly attained; cited from earlier work
MDCK = MDCK assay, cited from earlier work
[5] = buffer at pH 7.4; cited from earlier work
[6] = Apparent pKa by spectrophotometric titration (inForm, Sirius); assay type: physicochemical; conditions: for pKa: concentration-based, 30.8 °C, I = 0.172 M
Method: The molar absorption coefficients and apparent pKa values of 1 were determined by spectrophotometry using an inForm instrument from Sirius Analytical (Forest Row, UK). Molar absorption coefficients (absorbance), as a function of the wavelength (185–750 nm) and pH in the interval 2.0–12.0, were determined at 30.8 °C. A stock solution (5.0 mM) of 1·HCl in N-methyl-2-pyrrolidone (NMP) was added to 36 mL of an ionic strength-adjusted buffer solution (I = 0.172 M) containing acetate, phosphate, and sodium chloride while stirring at 300 rpm. The concentration of 1 during measurements ranged from 13–27 µM (three experiments each with three titrations were performed). Potentiometric titrations from high to low pH and low to high pH were performed by addition of 0.50 M HCl and 0.50 M NaOH, respectively, while UV–vis spectra were recorded using the fiber optic probe (10 mm light path) of the inForm diode array spectrometer. The instrument control and data analysis were performed using the inForm software Version 1.1.3.6 (Sirius Analytical, Forest Row, UK).

[7] = pH 7.4, calculated species distribution

SMILES	pH of saturated solution in water ([1]; saturated solution of 1·HCl in ultrapure water)	solubility thermodynamic ([1]; ultrapure water, 25 °C, pH 6.24, water, thermodynamic from solid) [µg/mL]	kinetic solubility ([1]; water, preparing 5 mg/mL requires shaking for several minutes)	stability in solution in phosphate buffer ([2]; phosphate buffer pH 7.4, 25 °C, 4 weeks)	stability in water ([2]; water, 25 °C, 4 weeks (1 month))	logD at 24 h ([3]; pH 5.00, octanol/50 mM sodium citrate)	logD at 24 h ([3]; pH 7.4, pH 7.40, octanol/67 mM sodium phosphate)	logD at 24 h ([3]; pH 9.5, pH 9.50, octanol/50 mM sodium carbonate)	BBB permeability [4]	permeability apical–basal (MDCK; apical–basal) [cm/s]	permeability basal–apical (MDCK; basal–apical) [cm/s]	solubility in buffer [5] [mg/mL]	pKa ([6]; read-out: apparent pKa (phenol))	pKa ([6]; read-out: apparent pKa (protonated amine))	fraction present in the protonated form ([6]; pH 6.24, saturated solution of 1·HCl in ultrapure water) [%]	fraction present as the neutral species [6, 7] [%]	fraction present in the protonated form [6, 7]	fraction present as the neutral species ([6]; pH 9.5, calculated species distribution) [%]
COc1cc(CCNCc2ccccc2O)c(OC)cc1C#N [1·HCl, 25CN-NBOH·HCl]	6.24 ± 0.01 and 6.24	8500 ± 300	low	stable	could not detect additional species; also recorded: stable													
COc1cc(CCNCc2ccccc2O)c(OC)cc1C#N [Compound 1, 25CN-NBOH]						-0.76 ± 0.01	1.59 ± 0.02	2.58 ± 0.01	excellent BBB permeability	2.9e-05	2e-05	0.4 (≈ 1280 µM)	10.7 ± 0.1	8.4 ± 0.1	> 99	~10	approximately 90%	87
